The values below come from patent publication US20220267373A1, “SELF-ASSEMBLING PEPTIDES AND HYDROGELS” (UNIVERSITY OF VIRGINIA PATENT FOUNDATION, priority 2018, published 2022).

For one data set, the system named is MADM OPC line. The data set can be described thus: Hydrogel cell encapsulation and 3D culture (ATP, DNA, live/dead, immunostaining). In kind it is cell-based. As to the method:
OPCs were cultured in DMEM with high glucose, 4 mM L-glutamine, 1 mM sodium pyruvate (Life Technologies) with N2 and B27 supplement (Life Technologies), 1% penicillin-streptomycin (Life Technologies), 10 ng/mL mouse PDGFA-AA (eBioscience), and 50 ng/mL human NT3 (Peprotech). Cell media was changed every 2 days, and cells were grown to 90% confluency and passaged using 0.25% trypsin in Dulbecco's phosphate buffered saline (PBS). Cells were cultured in 5% CO2 atmosphere, and 21% O2 at 37° C.
Hydrogels for cell encapsulation were made using 1.5 wt % AYFIL peptide in PBS. 25 μL hydrogels with 5×10^6 cells/mL were made by mixing cells and peptides and then transferred to a cell incubator for 10 minutes at 37° C. at 100% humidity. OPC proliferation media was then added to the hydrogels, and changed every 2 days. Hydrogels were stored at −80° C. in lysis buffer before running ATP or DNA quantification assays. For quantification, gels were homogenized in lysis buffer using a hand grinder and were measured using the CellTiter-Glo luminescent Cell Viability Assay (Promega, United States) and the QuantiT PicoGreen dsDNA assay (ThermoFisher) according to manufacturer protocols.
After 2 days of culture, gels were fixed in 4% paraformaldehyde for 20 minutes at 4° C. and rinsed with PBS before permeabilizing overnight with 0.3% triton-X in PBS. Hydrogels were rinsed in PBS, and then incubated with 10 μg/mL stock solution of Alexa Fluor 568 Phalloidin (ThermoFisher) in 1% BSA in PBS overnight. 4′,6-diamidino-2-phenylindole (DAPI) was added to stain cell nuclei during the last 20 minutes of incubation. Gels were then washed 4×20 min in PBS and imaged with a Zeiss LSM 780 confocal microscope. 100 μm z-stack images were collected with a z-spacing distance of 1 μm.

Data set [1] in a line: Hydrogel formation (gelation) of peptides dissolved in PBS with pH adjustment. In kind it is physicochemical. The conditions noted are these: for hydrogel formation: dissolved in PBS at pH 7.4 and 1.5 wt %; for gelation as the pH was raised: pH raised from low pH. As to the method: (§1) Lyophilized peptides were dissolved in PBS to a final concentration of 1.5 or 3 wt. %. The pH of the peptide solutions was adjusted by drop-wise addition of minute amounts of HCl or NaOH. Rheological tests were performed on 50 μL hydrogels 30 minutes after induction of gelation (Anton Par, P25S 25 mm parallel steel plates) with a measuring gap of 250 μm. Storage (G′) and loss (G″) moduli were measured as a function of strain (%) ranging from 0.01 to 100% with a constant frequency of 10 rad/s. Frequency sweeps were performed at angular frequencies ranging from 1 to 100 rad/s at 0.1% strain. For recovery experiments, a step-time procedure was utilized with a series of applied strains at a fixed oscillation frequency of 10 rad/s. Initially, samples were applied with 0.01% strain for 100 s followed immediately by a 100% strain for 50 s, and cycled 5 times.
The secondary structural content of pentapeptide specimens was probed by ATR-FTIR spectroscopy. Samples of the pentapeptides of interest were generated via solid-phase peptide synthesis methods. An alanine (Ala) scan of KYFIL was used to assess each AA's contribution to gelation, wherein individual amino acids (AAs) were sequentially exchanged with Ala or Val. Ala and Val were the substituted residues of choice, as they either eliminate a side-chain beyond the Cβ atom (Ala) or otherwise would be expected to minimally alter the main-chain conformation (Val). As uncharged and relatively compact residues, Ala and Val would not be expected to introduce (confounding) electrostatic or steric effects. All pentapeptides were dissolved in phosphate-buffered saline (PBS) at a concentration of 1.5% or 3% (weight/volume) and adjusted to a pH of 7.4. Gelling peptides (solid lines, FIG. 2) display a strong amide I absorbance at ≈1629 cm^−1, arising from vibrational modes of the amide group; these vibrations, in the region of 1700→1600 cm^−1, correspond to stretching of the C═O and C—N bonds, as well as bending of the N—H. This region of the IR spectrum is particularly sensitive to variations in secondary structural conformation and, in the case of our pentapeptide samples, is indicative of β-sheet hydrogen bonding (FIG. 2, FIG. 12, and FIGS. 13A-B). […] This can be inferred because the amide I region of parallel β-sheets harbors a single predominant signature (near 1630 cm^−1), while antiparallel sheets generally feature a second (minor) peak near ≈1680-1690 cm^−1. […] By correlating our IR observations with variations in AA sequence, it appears that amphiphilicity and a capacity for π-system interactions (e.g., π . . . π stacking and π . . . cation interactions with the benzyl side-chain of the central Phe) play a key role in self-assembly and hydrogel formation (FIG. 2).

Data set [2] can be described thus: Rheology: storage modulus (G') from strain sweeps of peptide hydrogels. The class given is physicochemical. Conditions: pH 7.4. As to the method: as §1
Data set [3] in a line: Electron microscopy (TEM, cryo-EM) of nanofiber morphology. In kind it is physicochemical. The conditions noted are these: for typical fiber / ribbon diameter: 1.5 wt % hydrogels at pH 7.4; for nanostructure morphology (TEM): 1.5 wt % in PBS at pH 7.4. Here is the method: 3.5 μL of peptide hydrogel was placed on a holey carbon grid (Protochips, Inc.). Three washes of deionized water, and three washes of 2% uranyl acetate staining solutions with 2 s blotting between each step was performed. Samples were analyzed on a Tecnai F20 equipped with a 4 k×4 k UltraScan CCD camera. Pitch and length were determined using Fiji (Schindelin, J. et al., Fiji: an open-source platform for biological-image analysis. Nat Methods 2012, 9 (7), 676-682, herein incorporated by reference in its entirety) and the FiberApp software package (Usov, I.; Mezzenga, R., FiberApp: An Open-Source Software for Tracking and Analyzing Polymers, Filaments, Biomacromolecules, and Fibrous Objects. Macromolecules 2015, 48 (5), 1269-1280, herein incorporated by reference in its entirety) was used to compute autocorrelation functions of intensity profiles.

The nature of data set [4]: pH-responsive solubility of nongelling sequences. In kind it is physicochemical.
The nature of data set [5]: Step-strain recovery / thixotropy test of hydrogel. In kind it is physicochemical. As to the method: as §1, with “Initially, samples were applied with 0.01% strain for 100 s followed immediately by a 100% strain for 50 s, and cycled 5 times.” left out
Data set [6] in a line: Apparent viscosity versus shear rate (shear-thinning). The class given is physicochemical.
Setting [7] is: 1.5 wt. % hydrogel, thixotropy test, 200% strain (200 s), 400 s recovery, FIG. 21 legend.

Read-outs that look alike come from different tables or passages of the source. Where no end group is shown, it is not given here.

Consider AYFIL-NH2 [AYFIL], for which the “viability and growth of OPCs encapsulated in hydrogel” value in the data set with MADM OPC line is “survived and grew”. Also, the “OPC proliferation (increase in DNA concentration)” value with MADM OPC line (1.5 wt % hydrogel, 4 days) is reported as “cells proliferate over the course of 4 days”. In addition, the “live/dead staining of encapsulated OPCs” value in the data set on MADM OPC line (1.5 wt % hydrogel, day 1) is “majority of cells remained viable”. For the same substance, in the data set with MADM OPC line (96 h), the “time OPCs remained viable after encapsulation (ATP increase)” value is reported as “at least 4 days”. Besides, the “time of culture to OPC process extension” value in the data set with MADM OPC line (without adhesion peptide sequences or native ECM proteins) was at most 2 days. In data set [1], the hydrogel formation result was “form hydrogels”. For the same substance, in data set [2] (1.5 wt % hydrogel), the “storage modulus (G')” value is listed as around 1900 Pa. In addition, in data set [3], the “typical fiber / ribbon diameter” value is “≈ 10 nm” and the “nanostructure morphology (TEM)” value is “twisted fibrils”.
As to “KAFIL (KAFIL-NH2) [pentapeptide, C-terminally amidated, gels at pH>10]”, the “gelation at high pH” value in data set [1] (pH>10) is “can gel”. The “storage modulus (G')” value in data set [2] (3 wt % hydrogel) was determined as 200 Pa. The “nanostructure morphology (TEM)” value in data set [3] is “spherical aggregates”.
Regarding KYAIL-NH2 [KYAIL], in data set [4], the “solubility at low pH” value is given as “soluble” and the “behavior as the pH was raised” value is “precipitated as an off-white powder”. Besides, the “gelation as the pH was raised” value in data set [1] is recorded as “never gelled”.
On to “KYFAL (KYFAL-NH2) [self-assembling pentapeptide, C-terminally amidated]”, for which the hydrogel formation result in data set [1] was “form hydrogels”. The “storage modulus (G')” value in data set [2] (3 wt % hydrogel) amounted to 133 Pa. Moreover, in data set [3], the “typical fiber / ribbon diameter” value is listed as “≈ 10 nm”; the “nanostructure morphology (TEM)” value was “twisted ribbon morphologies, with longer and more infrequent pitch than KYFIL peptides”.
In the case of KYFIA-NH2 [KYFIA], in data set [4], the “solubility at low pH” value was “soluble” and the “behavior as the pH was raised” value is on record as “precipitated as an off-white powder”. Further, the “gelation as the pH was raised” value in data set [1] is listed as “never gelled”.
KYFIL-CO2H: the “hydrogel formation of carboxyl-terminated variant” value in data set [1] (pH 7.4) was “did not readily form hydrogels”.
On to KYFIL-NH2 [KYFIL], for which, in the data set on MADM OPC line (1.5 wt % hydrogel, ATP and DNA concentrations over time), the “viability and growth of OPCs encapsulated in hydrogel” value was “poor cell viability”. In addition, in data set [1], the hydrogel formation result is reported as “form hydrogels”. Also, in data set [5] (setting [7]), the “time to recover 90% of initial G'” value turned out to be 3.5 min and the “time to recover 96% of initial G'” value came out at 7 min. The “time to recover gel behavior (G'>G'')” value in data set [5] (following 100% strain) is listed as at most 14 s. Moreover, in data set [5] (results text (FIG. 21)), the “time to recover 90% of initial G'” value came to 3.4 min and the “time to recover 96% of initial G'” value stood at 7 min. In addition, in data set [2] (1.5 wt % hydrogel), the “storage modulus (G')” value was 8000 Pa. Further, the “storage modulus (G')” value in data set [2] (3 wt % hydrogel) is recorded as 17000 Pa. In data set [3] (1.5 wt % hydrogel, pH 7.4, EM), the twisted ribbon pitch result is given as “ca. 132 nm” and the twisted ribbon width result is on record as “ca. 40 nm”. Besides, in data set [3], the “typical fiber / ribbon diameter” value is “≈ 40 nm” and the “nanostructure morphology (TEM)” value was “twisted ribbon morphologies”. The “nanostructure morphology (EM) in nongelling conditions” value in data set [3] (1.5 wt %, pH 4.6) was “amorphous peptide aggregates”. The “periodicity of the fibrillar twist” value in data set [3] (visual analysis and autocorrelation function of pixel intensity, TEM) is given as around 120 nm.
With KYFIV-NH2 [KYFIV], in data set [4], the “solubility at low pH” value is “soluble” and the “behavior as the pH was raised” value was “precipitated as an off-white powder”. The “gelation as the pH was raised” value in data set [1] is “never gelled”.
Regarding “RGDKYFIL (RGDKYFIL-NH2) [8-mer peptide containing KYFIL]”, the “storage modulus (G')” value in data set [2] (1.5 wt % hydrogel) is around 100 Pa; in data set [2] (3 wt % hydrogel), around 1000 Pa. Moreover, the “shear-thinning behavior (apparent viscosity versus shear rate)” value in data set [6] is listed as “displays shear-thinning behavior”.
